Data: US8906825B2, “Herbicidal compositions comprising 4-amino-3-chloro-5-fluoro-6-(4-chloro-2-fluoro-3-methoxyphenyl) pyridine-2-carboxylic acid or a derivative thereof and triazolopyrimidine sulfonamides” (Dow AgroSciences LLC, priority 2012, dated 2014)

Tests used:
Assay type in all cases: in vivo
[1] = tested on: BRAPP (Brachiaria platyphylla (Griseb.) Nash, broadleaf signalgrass); test: Postemergence foliar-applied herbicidal mixtures, direct seeded rice, greenhouse (Example I)
Text: (§1) Seeds or nutlets of the desired test plant species were planted in a soil matrix prepared by mixing a loam or sandy loam soil (e.g., 28.6 percent silt, 18.8 percent clay, and 52.6 percent sand, with a pH of about 5.8 and an organic matter content of about 1.8 percent) and calcareous grit in an 80 to 20 ratio. The soil matrix was contained in plastic pots with a volume of 1 quart and a surface area of 83.6 square centimeters (cm^2). When required to ensure good germination and healthy plants, a fungicide treatment and/or other chemical or physical treatment was applied. The plants were grown for 8-22 days in a greenhouse with an approximate 14 h photoperiod which was maintained at about 29° C. during the day and about 26° C. during the night. Nutrients (Peters Excel® 15-5-15 5-Ca 2-Mg and iron chelate) were applied in the irrigation solution as needed and water was added on a regular basis. Supplemental lighting was provided with overhead metal halide 1000-Watt lamps as necessary. The plants were employed for testing when they reached the first through fourth true leaf stage.
(§2) Treatments consisted of the acid or esters of 4-amino-3-chloro-5-fluoro-6-(4-chloro-2-fluoro-3-methoxy-phenyl)pyridine-2-carboxylic acid (Compound A), each formulated as an SC (suspension concentrate), and various herbicidal components alone and in combination. Forms of compound A were applied on an acid equivalent basis.
(§3) Other herbicidal components were applied on an active ingredient basis and included acetolactate synthase (ALS)-inhibiting herbicides (sulfonamide chemical class) penoxsulam formulated as Grasp® SC, diclosulam formulated as Strongarm®, and cloransulam-methyl formulated as FirstRate®, flumetsulam formulated as Flumetsulam WG, and metosulam formulated as Eclipse®.
(§4) Treatment requirements were calculated based upon the rates being tested, the concentration of active ingredient or acid equivalent in the formulation, and a 12 mL application volume at a rate of 187 L/ha.
(§5) For treatments comprised of formulated compounds, measured amounts of compounds were placed individually in 25 mL glass vials and diluted in a volume of 1.25% (v/v) Agri-Dex® crop oil concentrated to obtain 12× stock solutions. […] Application solutions were prepared by adding an appropriate amount of each stock solution (e.g., 1 mL) and diluted to the appropriate final concentrations with the addition of 10 mL of an aqueous mixture of 1.25% (v/v) crop oil concentrate so that the final spray solutions contained 1.25+/−0.05% (v/v) crop oil concentrate.
(§6) All stock solutions and applications solutions were visually inspected for compound compatibility prior to application. Spray solutions were applied to the plant material with an overhead Mandel track sprayer equipped with an 8002E nozzle calibrated to deliver 187 L/ha over an application area of 0.503 m^2 at a spray height of 18 to 20 inches (46 to 50 cm) above average plant canopy height. Control plants were sprayed in the same manner with the solvent blank.
(§7) The treated plants and control plants were placed in a greenhouse as described above and watered by sub-irrigation to prevent wash-off of the test compounds. After approximately 3 weeks, the condition of the test plants as compared with that of the untreated plants was determined visually and scored on a scale of 0 to 100 percent where 0 corresponds to no injury or growth inhibition and 100 corresponds to complete kill.
(§8) Colby's equation was used to determine the herbicidal effects expected from the mixtures (Colby, S. R. 1967. Calculation of the synergistic and antagonistic response of herbicide combinations. Weeds 15:20-22.).
(§9) The following equation was used to calculate the expected activity of mixtures containing two active ingredients, A and B: Expected=A+B−(A×B/100)

[2] = tested on: ISCRU (Ischaemum rugosum Salisb., saramollagrass); test: as above
Text: as §1, §2, §3, §4, §5, §6, §7, §8, §9

[3] = tested on: BRAPP (Brachiaria platyphylla (Griseb.) Nash, broadleaf signalgrass); test: Postemergence field trials in direct-seeded rice, United States (Example IV); details: foliar
Protocol: (§10) Multiple post-emergence field trials were conducted under field conditions in Tolima, Colombia; Thessaloniki, Greece; Ottobiano and Copiano, Italy; Greenville, Miss. and Eagle Lake, Tex., USA; and water-injected treatments were tested at Ryugasaki, Japan. Trial sites were located in commercially grown fields of direct-seeded rice (Oryza sativa) using standard herbicide small plot research methodology, except in Japan where transplanted rice was utilized for the field trial. Post-emergence trial plot size varied from 2 to 3 meter (m)×5 to 8 m (width×length) with 4 replicates per treatment. Water-injected trial plot size was 2×2 m with 3 replicates per treatment. The rice crop was grown using normal cultural practices for fertilization, seeding, watering, flooding and maintenance to ensure good growth of the crop and the weeds.
(§11) All treatments in the post-emergence field trials were applied using a backpack compressed air/gas sprayer with flat fan nozzles (80° or 110°) calibrated to apply 187 to 300 L/ha spray volume at approximately 200-400 kPa nozzle pressure. In Japan, treatments were water-injected applied where the specified amount of commercial product was mixed in 100 mls of water per replicate and applied directly into 3 cm deep water containing the crop and weeds. Treatments consisted of the benzyl ester of 4-amino-3-chloro-5-fluoro-6-(4-chloro-2-fluoro-3-methoxy-phenyl)pyridine-2-carboxylic acid (Compound A), formulated as an SC (suspension concentrate), and various herbicidal components alone and in combination.
(§12) Commercially available products of penoxsulam (Viper 20OD® (Europe), Grasp 240SC® (USA), and Wideattack 37.5SC® (Japan)) were mixed in water at appropriate formulated product rates to achieve the desired rates based on a unit area of application (hectare) to achieve the desired rates as shown. Treatments were rated at 15 to 56 days after application (DAA) as compared to the untreated control plants. Visual weed control was scored on a scale of 0 to 100 percent where 0 corresponds to no injury and 100 corresponds to complete kill.
(§13) All treatment results, both for the single product and mixtures, are an average of 3 to 4 replicates. The trial sites had naturally occurring populations of weeds. The weed spectrum included, but was not limited to, broadleaf signalgrass (Brachiaria platyphylla (Griseb.) Nash or Urochloa platyphylla (Nash) R.D. Webster, BRAPP), smallflower umbrellaplant (Cyperus difformis L., CYPDI), yellow nutsedge (Cyperus esculentus L., CYPES), multiple Echinochloa species in the same field (ECHSS) in Italy (mixed ECHSS biotypes), Amazon sprangletop (Leptochloa panicoides (J. Presl) A.S. Hitchc., LEFPA), and Japanese bulrush (Schoenoplectus juncoides (Roxb.) Palla, SCPJU).

[4] = tested on: LEFPA (Leptochloa panicoides(Presl.) Hitchc., Amazon sprangletop); test: as above; details: foliar
Protocol: as §10, §11, §12, §13

[5] = tested on: CYPDI (Cyperus difformis L., smallflower umbrella sedge); test: Postemergence field trials in direct-seeded rice, Greece and Italy (Example IV); details: foliar
Protocol: as §10, §11, §12, §13

[6] = tested on: CYPES (Cyperus esculentus L., yellow nutsedge); test: as above; details: foliar
Protocol: as §10, §11, §12, §13

ECHSS (Echinochloa spp.) = test: as above; details: foliar
Protocol: as §10, §11, §12, §13

[7] = tested on: SCPJU (Schoenoplectus juncoides Roxb., Japanese bulrush); test: Water-injected field trial in transplanted rice, Japan (Example IV)
Protocol: as §10, §11
as §12, with “kill. […]” for “kill.”

[8] = Compound A Benzyl Ester 8 gae/ha
[9] = Compound A Benzyl Ester 16 gae/ha
[10] = Compound A Benzyl Ester 32 gae/ha
[11] = Compound A Benzyl Ester 24 gae/ha

**Q.** COc1c(Cl)ccc(-c2nc(C(=O)OCc3ccccc3)c(Cl)c(N)c2F)c1F [Compound A Benzyl Ester, benzyl ester of 4-amino-3-chloro-5-fluoro-6-(4-chloro-2-fluoro-3-methoxy-phenyl)pyridine-2-carboxylic acid] was tested. Which “Visual Weed Control (%) - 22 DAA BRAPP Obs” value [1, 8] did it give?
**A.** The value was 60%.

**Q.** And the “Visual Weed Control (%) - 22 DAA BRAPP Obs” value [1, 9]?
**A.** The value was 60%.

**Q.** What about the “Visual Weed Control (%) - 21 DAA BRAPP Obs” value ([1]; Compound A Benzyl Ester 17.5 gae/ha) of the same compound?
**A.** The value was 80%.

**Q.** And the “Visual Weed Control (%) - 22 DAA BRAPP Obs” value [1, 10]?
**A.** Its value is 90%.

**Q.** What about the “Visual Weed Control (%) - 21 DAA ISCRU Obs” value [2, 8] of the same compound?
**A.** Its value is 20%.

**Q.** What about the “Visual Weed Control (%) - 21 DAA ISCRU Obs” value [2, 9] of the same compound?
**A.** Its value is 0%.

**Q.** What about the “Visual Weed Control (%) - 15-19 DAA BRAPP Obs” value [3, 10] of the same compound?
**A.** Its value is 62%.

**Q.** And the “Visual Weed Control (%) - 15-19 DAA LEFPA Obs” value [4, 11]?
**A.** The value was 53%.

**Q.** What about the “Visual Weed Control (%) - 54-56 DAA CYPDI Obs” value [5, 11] of the same compound?
**A.** The value was 81%.

**Q.** What about the “Visual Weed Control (%) - 54-56 DAA CYPES Obs” value [6, 11] of the same compound?
**A.** Its value is 15%.

**Q.** What about the “Visual Weed Control (%) - 54-56 DAA ECHSS Obs” value (ECHSS (Echinochloa spp.); [11]) of the same compound?
**A.** The value was 40%.

**Q.** And the “Visual Weed Control (%) - 28 DAA SCPJU Obs” value ([7]; Compound A Benzyl Ester 150 gae/ha)?
**A.** The value was 22%.

**Q.** What about the “Visual Weed Control (%) - 28 DAA SCPJU Obs” value ([7]; Compound A Benzyl Ester 200 gae/ha) of the same compound?
**A.** Its value is 25%.

**Q.** With COc1cnc(OC)n2nc(NS(=O)(=O)c3c(OCC(F)F)cccc3C(F)(F)F)nc12 [Penoxsulam, 2-(2,2-difluoroethoxy)-N-(5,8-dimethoxy[1,2,4]triazolo[1,5-c]pyrimidin-2-yl)-6-(trifluoromethyl)benzenesulfonamide, reference compound] as the compound, how does the “Visual Weed Control (%) - 21 DAA BRAPP Obs” value ([1]; Penoxsulam 4.38 gai/ha, Table 2) read?
**A.** The value was 0%.

**Q.** What about the “Visual Weed Control (%) - 21 DAA BRAPP Obs” value ([1]; Penoxsulam 4.38 gai/ha, Table 3) of the same compound?
**A.** The value was 0%.

**Q.** And the “Visual Weed Control (%) - 21 DAA BRAPP Obs” value ([1]; Penoxsulam 8.75 gai/ha, Table 2)?
**A.** Its value is 20%.

**Q.** And the “Visual Weed Control (%) - 21 DAA BRAPP Obs” value ([1]; Penoxsulam 8.75 gai/ha, Table 3)?
**A.** Its value is 20%.

**Q.** And the “Visual Weed Control (%) - 21 DAA BRAPP Obs” value ([1]; Penoxsulam 17.5 gai/ha, Table 3)?
**A.** Its value is 40%.

**Q.** What about the “Visual Weed Control (%) - 21 DAA ISCRU Obs” value ([2]; Penoxsulam 10 gai/ha) of the same compound?
**A.** Its value is 0%.

**Q.** What about the “Visual Weed Control (%) - 21 DAA ISCRU Obs” value ([2]; Penoxsulam 20 gai/ha) of the same compound?
**A.** The value was 0%.

**Q.** And the “Visual Weed Control (%) - 15-19 DAA BRAPP Obs” value ([3]; Penoxsulam 40 gai/ha)?
**A.** The value was 35%.

**Q.** And the “Visual Weed Control (%) - 15-19 DAA LEFPA Obs” value ([4]; Penoxsulam 40 gai/ha)?
**A.** The value was 16%.

**Q.** And the “Visual Weed Control (%) - 54-56 DAA CYPDI Obs” value ([5]; Penoxsulam 40 gai/ha)?
**A.** Its value is 0%.

**Q.** What about the “Visual Weed Control (%) - 54-56 DAA CYPES Obs” value ([6]; Penoxsulam 40 gai/ha) of the same compound?
**A.** Its value is 55%.

**Q.** What about the “Visual Weed Control (%) - 54-56 DAA ECHSS Obs” value (ECHSS (Echinochloa spp.); Penoxsulam 40 gai/ha) of the same compound?
**A.** Its value is 50%.

**Q.** What about the “Visual Weed Control (%) - 28 DAA SCPJU Obs” value ([7]; Penoxsulam 50 gai/ha) of the same compound?
**A.** Its value is 20%.
